In one series the test system is red blood cells. The series is described as follows: Toxicity and oxidative stress in red blood cells.
Another series has as its system VPA-exposed rats. In words: Elevated plus-maze test in rats prenatally exposed to valproic acid. The class given is in vivo, rat. The settings on record: offspring of VPA-treated pregnant rats. Here is the method: Female Wistar rats (Charles River), weighing 250±15 g, were mated overnight. The morning when spermatozoa were found was designated as gestational day 1 (GD1). Pregnant rats were singly housed in Macrolon cages (401×26w x 20h cm), under controlled conditions (temperature 20-21° C., 55-65% relative humidity and 12/12h light cycle with lights on at 07:00 a.m.). Food and water were available ad libitum. On gestational day 12.5, females received a single intraperitoneal injection of either sodium valproate (VPA) or saline (SAL). […] Newborn litters found up to 5.00 p.m. were considered to be born on that day (Postnatal day (PND) 0). On PND 1, the litters were culled to eight animals (six males and two females). On PND 21, the pups were weaned and housed in groups of three. […]
The apparatus comprised two open and two closed arms (501×10×40 h cm) that extended from a common central platform (101×10 w cm). […] Each session was recorded with a camera positioned above the apparatus for subsequent behavioral analysis performed using the Observer 3.0 software (Noldus Information Technology). The following parameters were analyzed: […]
Data are expressed as mean±SEM. To assess the effects of prenatal VPA exposure and psilocybin on behavioral parameters, data were analyzed by two-way ANOVA, with prenatal treatment and postnatal treatment as factors. […]

Series [1] in a line: Observation of discomfort/intoxication after repeated oral microdosing. The class given is in vivo, rat. The settings on record: Experiment 3: 0.1 or 0.3 mg/kg p.o. repeated; immediately and days after administration. The protocol: (§1) We performed three experiments testing Fmr1-^Δexon 8 rats and WT controls in the novel object recognition task using three different treatment schedules for psilocybin administration: • 1. Experiment 1: a single dose of either 1 (Hibicke et al., 2020) or 3 mg/kg psilocybin given intraperitoneally (i.p.) eight days before behavioral testing (FIG. 8A); • 2. Experiment 2: repeated microdoses of psilocybin (0.1 mg/kg) given i.p. three times every other day, with behavioral testing starting five days after the last administration (FIG. 8B); • 3. Experiment 3: repeated microdoses of psilocybin (0.1 or 0.3 mg/kg) (Higgins et al., 2021) given orally (p.o.) three times every other day, for two consecutive weeks, with behavioral testing starting five days after the last administration (FIG. 8C).
To increase the translational value of our findings, we finally decided to assess the effects of repeated oral administration of 0.1 and 0.3 mg/kg psilocybin microdoses, for two weeks every other day, in our Fmr1-^Δexon 8 rats. The animals were tested five days after the last treatment, to prevent any hallucinogenic effect of the drug at the time of behavioral performance.

The next series concerns wild-type (WT) animals. The series is described as follows: Novel object recognition task in wild-type control rats. The class given is in vivo, rat. Here is the method:
The experiments were performed in Fmr1-^Δexon 8 rats on a Sprague-Dawley background (Horizon Discovery, formerly SAGE Labs, USA), proposed as a genetic model of ASD and rat model of FXS (Golden et al., 2019; Schiavi et al., 2022); the corresponding wild-type (WT) animals were used as controls.
as §1
We have recently shown that Fmr1-^Δexon 8 rats show impaired novel object recognition memory at adolescence (Schiavi et al., 2022). […] On the training trial, each rat was individually placed into an open-field arena containing two identical objects (A1 and A2), equidistant from each other, and allowed to explore the objects for 5 min. Thirty minutes later, one copy of the familiar object (A3) and a new object (B) were placed in the same location as during the training trial. Each rat was placed in the apparatus for 5 minutes, and the time spent exploring each object was recorded. The discrimination index was calculated as the difference in time exploring the novel and the familiar objects, expressed as the percentage ratio of the total time spent exploring both objects (Schiavi et al., 2022).
Data are expressed as mean±SEM and were analyzed by two-way ANOVA, with genotype (WT or Fmr1-^Δexon 8) and treatment (psilocybin or vehicle) as factors. Tukey's post hoc test was used for individual group comparisons. The accepted value for significance was set at p<0.05. Data were analyzed using GraphPad Prism 8 software.

The conditions of series [2]: 0.1 mg/kg, rats; Higgins et al., 2021; cited from earlier work.

Molecules are shown by their SMILES. “Also recorded” adds a separate entry of the source.

Consider `CN(C)CCc1c[nH]c2cccc(OP(=O)(O)O)c12` [psilocybin], for which the “toxicity in red blood cells” value in the series with red blood cells is listed as “non-toxic”. Moreover, the “safety of treatment in the VPA model” value in the series with VPA-exposed rats is given as “safe”. Further, the “signs of discomfort/intoxication in the animals” value in series [1] was “did not induce any sign of discomfort/intoxication”. Further, the “cognitive performance of WT animals (% discrimination index)” value in the series on wild-type (WT) animals (Experiment 1: single dose 1 mg/kg i.p. eight days before testing, WT rats) is reported as “did not affect the performance of WT animals”; in the series with wild-type (WT) animals (Experiment 1: single dose 3 mg/kg i.p. eight days before testing, WT rats vs WT vehicle, p<0.001, 3 mg/kg) it was “poorer cognitive performance; also recorded: detrimental effect”. For the same compound, the “cognitive performance of WT animals” value in the series on wild-type (WT) animals (Experiment 2: 0.1 mg/kg i.p. three times every other day, WT rats) is recorded as “without affecting the performance of WT animals”; in the series with wild-type (WT) animals (Experiment 3: 0.1 or 0.3 mg/kg p.o. repeated for two weeks, WT rats) it was “without affecting the performance of WT animals”. In addition, the “performance in wild-type (WT) control animals” value in the series with wild-type (WT) animals (repeated microdoses (schedule not given at the place)) was “without affecting the performance”. The “side effects on motor activity or stereotypies” value in series [2] is listed as “devoid of side effects on motor activity or stereotypies”.
In the case of `CN(C)CCc1c[nH]c2cccc(O)c12` [psilocin], the “toxicity in red blood cells” value in the series on red blood cells is “non-toxic”.

The values are drawn from US20240424005A1, “DIAGNOSING, MONITORING AND TREATING NEUROLOGICAL DISEASE WITH PS[…] DERIVATIVES AND mRNA MEASUREMENTS” (NOVA MENTIS LIFE SCIENCE CORP., priority 2021, published 2024).
